According to patent US9512139B2, “Conformationally constrained, fully synthetic macrocyclic compounds” (POLYPHOR AG, priority 2009, dated 2016):
Like-named read-outs stand apart in the source and are kept apart here.

Assays:
[1] = amide bond
[2] = Metabolic stability assay, CD-1 mouse microsomes; type: in vitro ADME; details: CD-1, mouse, microsomes; for half-life at 10 µM: both sexes; for Metabolic Stability 60 min mouse [% remain.]: both, 1 h, 10 µM
[3] = biological target: T1, Prostaglandin F (FP) Receptor (Homo sapiens, UniProt P43088); assay: Ca2+ assay (FLIPR) for the GPCR prostaglandin F (FP) receptor, agonist and antagonist mode; type: cell-based
T1 construct: host or cells: Ca2+ optimized hematopoietic cell lines (rat)
T1 sequence (P43088 whole entry): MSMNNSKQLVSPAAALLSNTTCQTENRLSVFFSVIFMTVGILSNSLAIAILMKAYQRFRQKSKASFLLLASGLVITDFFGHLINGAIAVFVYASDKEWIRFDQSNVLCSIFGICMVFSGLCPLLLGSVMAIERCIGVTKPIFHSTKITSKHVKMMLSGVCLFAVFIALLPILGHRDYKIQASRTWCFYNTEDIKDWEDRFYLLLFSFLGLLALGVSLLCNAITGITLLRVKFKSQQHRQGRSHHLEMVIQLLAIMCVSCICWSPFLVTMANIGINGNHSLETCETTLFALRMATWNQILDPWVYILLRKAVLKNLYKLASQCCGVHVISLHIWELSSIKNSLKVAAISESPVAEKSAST
Method in brief: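 Ca2+-optimized rat hematopoietic cells carrying the receptor were loaded with Fluo-8 in HBSS/20 mM HEPES/2.5 mM probenecid and read on FLIPR. Agonist mode: 10 min compound incubation at 25 °C, % activation relative to Emax. Antagonist mode: stimulation at EC80 of the reference agonist (prostaglandin F2α for FP, 2MeSATP for P2Y1), fluorescence monitored 180 s.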

[4] = Metabolic stability assay, human microsomes; type: in vitro ADME; details: human, microsomes; for half-life at 10 µM: both sexes; for Metabolic Stability 60 min hum [% remain.]: both, 1 h, 10 µM
in vitro [5] = type: in vitro ADME, human; details: human, plasma; for Plasma Stability 240 min hum [% remain.]: 4 h; for Plasma Stability 240 min hum [% remain.] / Plasma Stability T½ [min] hum: 10 µM
in vitro [6] = type: in vitro ADME, mouse; details: both, CD-1, mouse, plasma, 10 µM; for Plasma Stability 240 min mouse [% remain.]: 4 h
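Throughout, for Plasma Stability 240 min mouse [% remain.]: sodium citrate stabilized mouse plasma, parent compound quantified by HPLC/MS/MS relative to its peak area at time zero, run in triplicate.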
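Throughout, for Plasma Stability T½ [min] mouse: sodium citrate stabilized mouse plasma, parent compound quantified by HPLC/MS/MS relative to its peak area at time zero, run in triplicate.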

| half-life at 10 µM [2] | Metabolic Stability 60 min mouse [% remain.] [2] | IC50 [3] | inhibition at 10 µM [3] | half-life at 10 µM [4] | Metabolic Stability 60 min hum [% remain.] [4] | Plasma Stability 240 min hum [% remain.] (in vitro [5]) | Plasma Stability T½ [min] hum (in vitro [5]) | Structure (SMILES) | further results |
| --- | --- | --- | --- | --- | --- | --- | --- | --- | --- |
| – | – | – | – | – | – | – | – | CC(C)(C)OC(=O)N[C@H]1C[C@H]2COc3cccc(c3)C(=O)NCCC[C@H](NC(=O)OCc3ccccc3)C(=O)N2C1 | ring closure, yield of all isomers ([1]; from CC(C)(C)OC(=O)N[C@@H]1CN[C@H](COc2cccc(C(=O)NCCC[C@H](NC(=O)OCc3ccccc3)C(=O)O)c2)C1, T3P, i-Pr2NEt, CH2Cl2, 5.37 mM): 71% |
| – | – | – | – | – | – | – | – | CN1C[C@H](NC(=O)OCc2ccccc2)C(=O)N(C)CC(=O)N2C[C@@H](NC(=O)OCC[Si](C)(C)C)C[C@H]2COc2cccc(c2)C1=O | ring closure, yield of all isomers ([1]; from CN(C[C@H](NC(=O)OCc1ccccc1)C(=O)N(C)CC(=O)O)C(=O)c1cccc(OC[C@@H]2C[C@H](NC(=O)OCC[Si](C)(C)C)CN2)c1, FDPP, DMF, 9.73 mM): 63% |
| – | – | – | – | – | – | – | – | CN1CCC[C@H](NC(=O)OCc2ccccc2)C(=O)N2C[C@@H](OCc3ccc(Br)cc3)C[C@H]2CSc2cccc(c2)C1=O | ring closure, yield of all isomers ([1]; from CN(CCC[C@H](NC(=O)OCc1ccccc1)C(=O)O)C(=O)c1cccc(SC[C@@H]2C[C@H](OCc3ccc(Br)cc3)CN2)c1, T3P, CH2Cl2, 1.96 mM, 25.0 °C, 3.0 h): 79% |
| – | – | – | – | – | – | – | – | CN1CCCC[C@H](NC(=O)OCc2ccccc2)C(=O)N2C[C@@H](NC(=O)OC(C)(C)C)C[C@H]2COc2cncc(c2)C1=O | ring closure, yield of all isomers ([1]; from CN(CCCC[C@H](NC(=O)OCc1ccccc1)C(=O)O)C(=O)c1cncc(OC[C@@H]2C[C@H](NC(=O)OC(C)(C)C)CN2)c1, T3P, CH2Cl2, 4.78 mM): 79% |
| – | – | – | – | – | – | – | – | CN1CC(=O)N2CCN(C(=O)OC(C)(C)C)C[C@H]2COc2ccc(F)cc2C(=O)N(C)[C@H](C(=O)OCc2ccccc2)CCC1=O | ring closure, yield of all isomers ([1]; from CN(CC(=O)O)C(=O)CC[C@@H](C(=O)OCc1ccccc1)N(C)C(=O)c1cc(F)ccc1OC[C@@H]1CN(C(=O)OC(C)(C)C)CCN1, T3P / i-Pr2NEt, CH2Cl2, 10.0 mM): 90% |
| – | – | – | – | – | – | – | – | CN1C[C@H](NC(=O)OCc2ccccc2)C(=O)N(C)CC(=O)N2C[C@@H](NC(=O)OC(C)(C)C)C[C@H]2COc2cccc(c2)C1=O | ring closure, yield of all isomers ([1]; from CNCC(=O)N1C[C@@H](NC(=O)OC(C)(C)C)C[C@H]1COc1cccc(C(=O)N(C)C[C@H](NC(=O)OCc2ccccc2)C(=O)O)c1, T3P / i-Pr2NEt, CH2Cl2, 0.96 mM): 73%; ring closure, yield of all isomers ([1]; from CNCC(=O)N1C[C@@H](NC(=O)OC(C)(C)C)C[C@H]1COc1cccc(C(=O)N(C)C[C@H](NC(=O)OCc2ccccc2)C(=O)O)c1, T3P / i-Pr2NEt, CH2Cl2, 1.0 mM): 39% |
| – | – | – | – | – | – | – | – | CC(C)(C)OC(=O)N[C@@H]1C[C@H]2COc3ccc(Br)cc3C(=O)NC3(CCCC3)C(=O)N[C@@H](Cc3ccc4ccccc4c3)CC(=O)N2C1 | ring closure, yield of all isomers ([1]; from CC(C)(C)OC(=O)N[C@H]1CN[C@H](COc2ccc(Br)cc2C(=O)NC2(C(=O)N[C@H](CC(=O)O)Cc3ccc4ccccc4c3)CCCC2)C1, T3P, i-Pr2NEt, CH2Cl2, 1.0 mM, 25.0 °C, 2.0 h): 68% |
| – | – | – | – | – | – | – | – | CN1CCC[C@H](NC(=O)OCc2ccccc2)C(=O)N2C[C@@H](NC(=O)OCC[Si](C)(C)C)C[C@H]2COc2cccc(c2)C1=O | ring closure, yield of all isomers ([1]; from CN(CCC[C@H](NC(=O)OCc1ccccc1)C(=O)O)C(=O)c1cccc(OC[C@@H]2C[C@H](NC(=O)OCC[Si](C)(C)C)CN2)c1, T3P, CH2Cl2, 9.4 mM): 54% |
| – | – | – | – | – | – | – | – | CN1CC[C@H](NC(=O)OCc2ccccc2)C(=O)N2C[C@@H](NC(=O)OCC[Si](C)(C)C)C[C@H]2COc2cccc(c2)C1=O | ring closure, yield of all isomers ([1]; from CN(CC[C@H](NC(=O)OCc1ccccc1)C(=O)O)C(=O)c1cccc(OC[C@@H]2C[C@H](NC(=O)OCC[Si](C)(C)C)CN2)c1, FDPP, DMF, 0.97 mM): 43% |
| – | – | – | – | – | – | – | – | CN1CC(=O)N2C[C@H](NC(=O)OC(C)(C)C)C[C@H]2COc2ccc(cc2)C(=O)N(C)[C@H](C(=O)OCc2ccccc2)CCC1=O | ring closure, yield of all isomers ([1]; from CNCC(=O)N1C[C@H](NC(=O)OC(C)(C)C)C[C@H]1COc1ccc(C(=O)N(C)[C@@H](CCC(=O)O)C(=O)OCc2ccccc2)cc1, T3P, i-Pr2NEt, CH2Cl2, 1.05 mM, 3.0 h): 54% |
| – | – | – | – | – | – | – | – | CN1CC(=O)N2C[C@H](NC(=O)OC(C)(C)C)C[C@H]2COc2ccsc2C(=O)N(C)[C@H](C(=O)OCc2ccccc2)CCC1=O | ring closure, yield of all isomers ([1]; from CNCC(=O)N1C[C@H](NC(=O)OC(C)(C)C)C[C@H]1COc1ccsc1C(=O)N(C)[C@@H](CCC(=O)O)C(=O)OCc1ccccc1, T3P, CH2Cl2, 10.0 mM, 25.0 °C, 1.0 h): 69% |
| 20 min | 24 % remain. | 204 nM | 73% | 22 min | 23 % remain. | 26 % remain. | – | CN1CCC[C@H](NS(=O)(=O)c2ccc(-c3ccccc3)cc2)C(=O)N2C[C@@H](NC(=O)Cc3ccc4ccccc4c3)C[C@H]2COc2cccc(c2)C1=O [Ex. 527, N-[(4S,6S,10S)-10-[([1,1′-biphenyl]-4-ylsulfonyl)amino]-14-methyl-9,15-dioxo-2-oxa-8,14-diazatricyclo[14.3.1.0^4,8]icosa-1(20),16,18-trien-6-yl]-2-(2-naphthyl)acetamide] | half-life at 10 µM (in vitro [5]): 109 min |
| 13 min | 3 % remain. | 640 nM | 47% | 21 min | 9 % remain. | 100 % remain. | > 240 min | CN1CCC[C@H](NC(=O)Cc2cccc3ccccc23)C(=O)N2C[C@@H](NC(=O)Cc3ccc4ccccc4c3)C[C@H]2COc2cccc(c2)C1=O [Ex. 505, N-[(4S,6S,10S)-14-methyl-6-{[2-(2-naphthyl)acetyl]amino}-9,15-dioxo-2-oxa-8,14-diazatricyclo[14.3.1.0^4,8]icosa-1(20),16,18-trien-10-yl]-2-(1-naphthyl)acetamide] | Plasma Stability T½ [min] mouse (in vitro [6]): > 240 min; Plasma Stability 240 min mouse [% remain.] (in vitro [6]): 98 % remain. |
| 25 min | 29 % remain. | 94 nM | 99% | 16 min | 13 % remain. | 100 % remain. | > 240 min | CN1CCC[C@H](NC(=O)Cc2cccc(-c3ccccc3)c2)C(=O)N2C[C@@H](NC(=O)Nc3cccc(N(C)C)c3)C[C@H]2COc2cccc(c2)C1=O [Ex. 525, 2-[1,1′-biphenyl]-3-yl-N-[(4S,6S,10S)-6-({[3-(dimethylamino)anilino]carbonyl}amino)-14-methyl-9,15-dioxo-2-oxa-8,14-diazatricyclo[14.3.1.0^4,8]icosa-1(20),16,18-trien-10-yl]acetamide] | – |
| 22 min | 0 % remain. | 520 nM | 74% | 15 min | 0 % remain. | 66 % remain. | > 240 min | CN1CCC[C@H](NC(=O)OCc2ccccc2)C(=O)N2C[C@@H](NC(=O)Cc3ccc4ccccc4c3)C[C@H]2COc2cccc(c2)C1=O [Ex. 184, benzyl N-[(4S,6S,10S)-14-methyl-6-{[2-(2-naphthyl)acetyl]amino}-9,15-dioxo-2-oxa-8,14-diazatricyclo[14.3.1.0^4,8]icosa-1(20),16,18-trien-10-yl]carbamate] | Plasma Stability T½ [min] mouse (in vitro [6]): > 240 min; Plasma Stability 240 min mouse [% remain.] (in vitro [6]): 58 % remain. |
| 12 min | 10 % remain. | 120 nM | 97% | 17 min | 8 % remain. | 86 % remain. | > 240 min | CN1CCC[C@H](NC(=O)Cc2cccc3ccccc23)C(=O)N2C[C@@H](NC(=O)Nc3cccc(N(C)C)c3)C[C@H]2COc2cccc(c2)C1=O [Ex. 512, N-[(4S,6S,10S)-6-({[3-(dimethylamino)anilino]carbonyl}amino)-14-methyl-9,15-dioxo-2-oxa-8,14-diazatricyclo[14.3.1.0^4,8]icosa-1(20),16,18-trien-10-yl]-2-(1-naphthyl)acetamide] | – |
| 14 min | 14 % remain. | 59 nM | 99% | 2 min | 1 % remain. | 100 % remain. | > 240 min | CCCCCCCCCC(=O)N[C@H]1CCCN(C)C(=O)c2cccc(c2)OC[C@@H]2C[C@H](NC(=O)Nc3cccc(N(C)C)c3)CN2C1=O [Ex. 511, N-[(4S,6S,10S)-6-({[3-(dimethylamino)anilino]carbonyl}amino)-14-methyl-9,15-dioxo-2-oxa-8,14-diazatricyclo[14.3.1.0^4,8]icosa-1(20),16,18-trien-10-yl]decanamide] | – |
| 30 min | 26 % remain. | 28000 nM | 38% | 27 min | 12 % remain. | 91 % remain. | > 240 min | CN1C[C@H](NC(=O)OCc2ccccc2)C(=O)N(C)CC(=O)N2C[C@@H](NC(=O)Cc3c[nH]c4ccccc34)C[C@H]2COc2cccc(c2)C1=O [Ex. 200, benzyl N-[(4S,6S,13S)-6-{[2-(1H-indol-3-yl)acetyl]amino}-11,15-dimethyl-9,12,16-trioxo-2-oxa-8,11,15-triazatricyclo[15.3.1.0^4,8]henicosa-1(21),17,19-trien-13-yl]carbamate] | Plasma Stability T½ [min] mouse (in vitro [6]): > 240 min; Plasma Stability 240 min mouse [% remain.] (in vitro [6]): 100 % remain. |
